{"source": "patent US20150320756A1", "about": "“TREATMENTS OF COCCIDIOSIS WITH INTRAMUSCULAR TRIAZINE COMPOSITIONS” (CEVA SANTE ANIMALE, priority 2012, published 2015)", "type_in_all_cases": "in vivo", "key": {"[1]": {"test": "Local and general tolerance of intramuscular toltrazuril in 2 day-old piglets (Example B)", "conditions": "all tested doses (i.m. 20 and 40 mg/kg)", "procedure": "(§1) Protocol • Group 1: 10 piglets 2 days old were injected with once intramuscularly dose of toltrazuril C629 (Dose=20 mg toltrazuril per kg bodyweight—equivalent to 0.4 mL/Kg bodyweight) on SD0 • Group 2: 11 piglets 2 days old were injected with once intramuscularly dose of toltrazuril C629 (Dose=40 mg toltrazuril per kg bodyweight a—equivalent to 0.8 mL/kg bodyweight) on SD0 • Group 3: 9 piglets 2 days old were dosed orally with the standard commercial formulation of toltrazuril Cevazuril® (Dose=20 mg toltrazuril per kg bodyweight—equivalent to 0.4 mL/Kg bodyweight) on SD0. • Group 4: 8 piglets, left untreated.\n(§2) All four (4) groups of piglets were injected on SD0 with iron injection (Gleptosil®) at the dose rate of 1 ml per piglet. 3 days after treatment (on SD3), the piglets were orally challenged with a characterised strain of Isospora suis.\n(§3) The following study parameters were used to assess the efficacy of the test products: • Local and general tolerance (for Groups 1 and 2) • Occurrence of diarrhoea and faecal consistency • Oocyst excretion • Bodyweight development • Serum concentrations of toltrazuril and its metabolite toltrazuril sulfone (e.g ponazuril) in Group 1, 2 and 3."}, "[2]": {"test": "Bodyweight development of piglets on a farm with known history of coccidiosis (Example A)", "procedure": "(§4) This target animal safety and efficacy study was conducted in a farm with known history of cocciodiosis. The main objective was to study the safety and efficacy of intramuscular injection of toltrazuril in comparison to the standard oral application. • Group 1: 8 piglets 3 days old were injected by a single intramuscular dose of toltrazuril (Dose=20 mg toltrazuril per kg bodyweight equivalent to 0.4 mL/kg bodyweight) on SD0. • Group 2: 8 piglets 3 days old were injected by one intramuscular dose of toltrazuril (60 mg toltrazuril per kg bodyweight equivalent to 1.2 mL/Kg bodyweight) on SD0 • Group 3: 8 piglets 3 days old were dosed orally with the standard commercial formulation of toltrazuril Cevazuril® (Dose=20 mg toltrazuril per kg bodyweight equivalent to 0.4 mL/Kg bodyweight) on SD0 • Group 4: 12 piglets 3 days old, left untreated.\n(§5) All four (4) groups of piglets were injected on SD0 with iron (Gleptosil®) at the dose rate of 1 ml per piglet."}, "[3]": {"test": "Pharmacokinetics: serum concentrations of toltrazuril and toltrazuril sulfone in 2 day-old piglets (Example B)", "procedure": "as §1, §2, §3"}, "[4]": {"test": "Local and general tolerance of a single intramuscular injection of toltrazuril in 3-day old piglets (Example A)", "procedure": "as §4, §5"}, "Isospora suis": {"tested_on": "Isospora suis", "test": "Anti-coccidial efficacy in piglets orally challenged with Isospora suis (Example B)", "procedure": "as §1, §2, §3"}, "[5]": {"conditions": "G1, G2: single i.m. 20 or 40 mg/kg on SD0, Isospora suis challenge on SD3"}}}
{"smiles": "Cc1cc(-n2c(=O)[nH]c(=O)n(C)c2=O)ccc1Oc1ccc(SC(F)(F)F)cc1", "note": "[toltrazuril]", "values": [{"measurement": "Tolerance", "setting": "[1]", "result": "well tolerated"}, {"measurement": "Bodyweight gain versus control non treated piglets", "setting": "[2]; intramuscularly treated piglets, at SD0+29 days", "result": "+2 kg"}, {"measurement": "Bodyweight development", "setting": "[2]; single i.m. 20 or 60 mg/kg, 3-day old piglets", "result": "normal"}, {"measurement": "Absorption", "setting": "[3]; after intramuscular application, piglets", "result": "well absorbed"}, {"measurement": "Toltrazuril sulfone (ponazuril) kinetics, oral (G3) versus intramuscular (G1 and G2)", "setting": "[3]; metabolite after toltrazuril 20 mg/kg oral vs 20 or 40 mg/kg i.m.", "result": "not statistically different"}, {"measurement": "Serum level of toltrazuril sulfone", "setting": "[3]; upon intramuscular injection of toltrazuril (FIGS. 4 and 5)", "result": "rapid and sustained"}, {"measurement": "Time to disappearance of local reaction post injection", "setting": "[4]; piglets injected i.m. with 1.2 mL/kg bodyweight", "result": "less than 1 week"}, {"measurement": "Local reaction (oedema)", "setting": "[4]; piglets injected i.m. with 1.2 mL/kg bodyweight (60 mg/kg)", "result": "limited local reaction (Oedema) in some piglets"}, {"measurement": "General tolerance", "setting": "[4]; single intramuscular doses up to 60 mg/kg, 3-day old piglets", "result": "well tolerated"}, {"measurement": "Pain after injection", "setting": "[4]; single intramuscular injection, 3-day old piglets", "result": "No pain"}, {"measurement": "Fecal consistency", "setting": "Isospora suis; [5]", "result": "unchanged"}, {"measurement": "Oocyst excretion", "setting": "Isospora suis; [5]", "result": "No oocyst excretion was observed"}, {"measurement": "Weight gain versus control animals (G4)", "setting": "Isospora suis; G1, G2: single i.m. 20 or 40 mg/kg, infected piglets", "result": "gained more weight than the control animals"}]}
